Source: ChEMBL document CHEMBL1141955, “Geometric diversity through permutation of backbone configuration in cyclic peptide libraries” (Bioorg Med Chem Lett, 2005)

Target: Actin, cytoplasmic 1 (Xenopus laevis, UniProt O93400)
Test: Inhibitory activity against actin assembly in xenopus by polymerisation assay; call rule not given here

SMILES | IC50 | IC50 (read-out: IC50)
NCCCC[C@@H]1NC(=O)[C@H](CCC(N)=O)NC(=O)[C@H]2CCCN2C(=O)[C@H](Cc2ccccc2)NC(=O)[C@@H](Cc2ccccc2)NC(=O)[C@H]2CCCN2C(=O)[C@@H](Cc2ccccc2)NC1=O | Not Active | –
NCCCC[C@@H]1NC(=O)[C@H](CCC(N)=O)NC(=O)[C@H]2CCCN2C(=O)[C@H](Cc2ccccc2)NC(=O)[C@@H](Cc2ccccc2)NC(=O)[C@H]2CCCN2C(=O)[C@@H](Cc2ccccc2)NC(=O)[C@H](CCCCN)NC(=O)[C@H](CCC(N)=O)NC(=O)[C@H]2CCCN2C(=O)[C@H](Cc2ccccc2)NC(=O)[C@@H](Cc2ccccc2)NC(=O)[C@H]2CCCN2C(=O)[C@@H](Cc2ccccc2)NC1=O | – | 2000 nM
